Kd, binding and EC50 data for 9 molecules are collected here from article PMC10783497 (2023).

The test system of assay [1] is PS2.M (DNA, G4) GTGGGTAGGGCGGGTTGG
Briefly: ligand fluorescence titration. The settings on record: 100 mM KCl; 10 mM Tris-HCl, pH 7.6; no CDHP.

Assay [2] relates to Malachite green (MG) aptamer (RNA, aptamer) GGAUCCCGACUGGCGAGAGCCAGGUAACGAAUGGAUCC
In words: fluorescence spectrum. To be noted: 100 mM KCl, 5 mM MgCl2; 10 mM HEPES, pH 7.4; 1 μM CV; also in 2 M CDHP.

In assay [3] the test system is Scrambled MG aptamer (RNA, other) ACCGUUGCCGGACGAGACUGAUACGCGGAAGUCGCAAG
Briefly: fluorescence spectrum. To be noted: 100 nM scrambled RNA.

The test system of assay [4] is Malachite green (MG) aptamer (RNA, aptamer) GGAUCCCGACUGGCGAGAGCCAGGUAACGAAUGGAUCC
In words: fluorescence light-up titration of MG. To be noted: 100 mM KCl, 5 mM MgCl2; 10 mM Na-HEPES, pH 7.4; 100 nM aptamer; no CDHP.

Assay [5] relates to Cortisol aptamer (DNA, aptamer) CTCTTGGGACGACGCCCGCATGTTCCATGGATAGTCTTGACTAGTCGTCCC
Briefly: aptasensor strand-displacement fluorescence (FAM/BHQ1). The settings on record: aqueous buffer and 2 M CDHP; 3'-FAM signaling strand GTCGTCCCAAGAG hybridized; 1-10 ng/ml cortisol.

Assay [6] deals with ATP aptamer (DNA, aptamer) AATTCTGGGGGAGCCTTTTGTGGGTAGGGCGGGTTGGTTTTGCCCCGGAGGAGGAATT
Briefly: structure-switching FAM/BHQ1 fluorescence quenching. The settings on record: 300 mM NaCl, 5 mM MgCl2, 20 mM Tris-HCl, pH 7.4; for binding: 2 M CDHP, AD-13 hybridized, 1 mM nucleotide tested.

Structures are written as SMILES.

`CCc1c(C)c2cc3nc(cc4nc(cc5c(CC)c(C)c(cc1[nH]2)n5C)C(C)=C4CCC(=O)O)C(CCC(=O)O)=C3C` displayed a Kd in assay [1] of 520.6 nM.

With `CN(C)c1ccc(C(=C2C=CC(=[N+](C)C)C=C2)c2ccc(N(C)C)cc2)cc1`, the binding entry in assay [2] is reported as “no”.

For `CN(C)c1ccc(C(=C2C=CC(=[N+](C)C)C=C2)c2ccccc2)cc1`, the binding entry in assay [3] was “no”. Moreover, in assay [4], the Kd stood at 257.3 nM.

As to `C[C@]12CCC(=O)C=C1CC[C@@H]1[C@@H]2[C@@H](O)C[C@@]2(C)[C@H]1CC[C@]2(O)C(=O)CO`, in assay [5], the binding result was “yes”.

`Cc1ccc2c(c1)sc(-c1ccc(N(C)C)cc1)[n+]2C` returned a Kd in assay [1] of 1444.7 nM.

As to `Nc1ccn([C@@H]2O[C@H](COP(=O)(O)OP(=O)(O)OP(=O)(O)O)[C@@H](O)[C@H]2O)c(=O)n1`, the binding entry in assay [6] is “no”.

Regarding `Nc1nc2c(ncn2[C@@H]2O[C@H](COP(=O)(O)OP(=O)(O)OP(=O)(O)O)[C@@H](O)[C@H]2O)c(=O)[nH]1`, the binding entry in assay [6] is on record as “no”.

`Nc1ncnc2c1ncn2[C@@H]1O[C@H](COP(=O)(O)OP(=O)(O)OP(=O)(O)O)[C@@H](O)[C@H]1O` registered an EC50 in assay [6] (antisense DNA AD-13 displaced, no CDHP) of 384000 nM.

Take `O=c1ccn([C@@H]2O[C@H](COP(=O)(O)OP(=O)(O)OP(=O)(O)O)[C@@H](O)[C@H]2O)c(=O)[nH]1`: the binding result in assay [6] is “no”.
